Data reported in paper PMC10970644, “Molecular Pharmacology of Gelsemium Alkaloids on Inhibitory Receptors” (International Journal of Molecular Sciences, 2024).

Legend:
α3 GlyR = molecular target: T1, α3 GlyR (Rattus norvegicus, UniProt P24524); conditions: cited from earlier work
T1 construct: expressed in transfected cells; host or cells: HEK293 (ATCC CRL-1573)
T1 sequence (P24524 34-464): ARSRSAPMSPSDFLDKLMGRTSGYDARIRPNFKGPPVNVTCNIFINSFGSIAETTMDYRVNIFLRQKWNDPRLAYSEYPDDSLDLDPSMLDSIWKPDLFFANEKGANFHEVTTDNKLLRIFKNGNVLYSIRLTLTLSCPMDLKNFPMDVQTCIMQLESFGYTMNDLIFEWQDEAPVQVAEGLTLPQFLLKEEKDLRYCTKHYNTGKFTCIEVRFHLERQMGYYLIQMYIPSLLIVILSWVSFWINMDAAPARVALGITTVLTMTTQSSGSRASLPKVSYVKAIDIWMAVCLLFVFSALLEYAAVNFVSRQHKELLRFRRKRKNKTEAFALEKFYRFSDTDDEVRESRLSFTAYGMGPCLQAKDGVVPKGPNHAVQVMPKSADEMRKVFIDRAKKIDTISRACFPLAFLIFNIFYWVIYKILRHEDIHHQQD

[1] = humans; cited from earlier work
[2] = test system: recombinant and native GABAARs; conditions: cited from earlier work
chimeric α2α1 GlyR = molecular target: T2, chimeric α2α1 GlyR (Rattus norvegicus, UniProt P07727+P22771, A288G/A330S/F348L/L351F/V274I); type: cell-based
T2 construct: Relevance of the ECD for the subunit-specific actions of gelsemine on α1GlyRs; fusion partner: GlyR α1 transmembrane and C-terminal part (Glra1, printed Q546L7); expressed in transfected cells; host or cells: HEK293 (ATCC CRL-1573)
T2 sequence (P22771+P07727 with tags, fused parts or gaps P22771:V274I/P22771:A288G/P22771:A330S/P22771:F348L/P22771:L351F): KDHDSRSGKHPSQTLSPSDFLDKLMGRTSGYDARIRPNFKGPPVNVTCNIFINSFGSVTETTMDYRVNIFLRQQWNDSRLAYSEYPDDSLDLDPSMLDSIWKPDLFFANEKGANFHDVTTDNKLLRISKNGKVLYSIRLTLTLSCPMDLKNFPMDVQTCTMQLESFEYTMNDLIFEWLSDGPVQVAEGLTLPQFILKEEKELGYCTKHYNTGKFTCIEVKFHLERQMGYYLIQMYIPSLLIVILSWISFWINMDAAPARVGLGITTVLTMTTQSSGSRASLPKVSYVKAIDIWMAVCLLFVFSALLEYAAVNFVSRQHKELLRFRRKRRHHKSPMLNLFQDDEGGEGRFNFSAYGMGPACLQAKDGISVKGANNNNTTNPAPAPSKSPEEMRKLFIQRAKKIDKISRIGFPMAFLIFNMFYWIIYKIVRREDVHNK
Description: (§1) The cells were transfected with plasmids encoding the following proteins: (i). rat GlyR α (1, 2, 3) subunits alone or combined with rat β subunits (Uniprot Accession Numbers: Q546L7, P22771, P20236, P20781); and (ii). rat GABAAR α1 combined with rat β2 and γ2 subunits (Uniprot Accession Numbers: P62813, P63138, P18508). The EGFP expression was used as a marker of successful protein expression. The transfection was performed using Lipofectamine 2000 (Invitrogen, ThermoFisher, Carlsbad, CA, USA) using the fabricant protocol. The plasmids used to express GlyRs and GABAARs have been previously described. To track the successful expression of GlyR β subunits and the GABAA γ2 or β2 subunit, these proteins were subcloned in the pIRES2-EGFP vector. The transfection ratio to obtain β-containing GlyRs was 1:5 of α:β, while the expression of γ2-containing GABAA receptors was 1:2:5 of α:β:γ2 [14, 15]. Chimeric GlyRs were described in a previous report. Site directed mutagenesis was performed by Charm Gene Science Mutagenex LLC. (Cumming, GA, USA). All the constructs were checked by full-length sequencing (SNPSaurus, Eugene, OR, USA).
(§2) In brief, patch electrodes (3–4 MΩ) were pulled from borosilicate glasses in a PC-100 puller (Narishige, Tokyo, Japan); then, they were filled with an intracellular solution, which contained (in mM) 120 CsCl, 8 EGTA, 10 HEPES (pH 7.4), 4 MgCl2, 0.5 GTP, and 2 ATP. The extracellular solution contained (in mM) 140 NaCl, 5.4 KCl, 2.0 CaCl2, 1.0 MgCl2, 10 HEPES (pH 7.4), and 10 glucose. Whole-cell patch-clamp recordings were performed at −60 mV with an Axoclamp 200B (Molecular Devices, Sunnyvale, CA, USA) or with HEKA EPC-10 (HEKA Elektronik GmbH, Reutlingen, Germany) amplifiers. […] Brief (3–5 s) pulses of agonist together with alkaloids were applied to cells. Stock solutions of the alkaloids were prepared in high purity distilled water. Aliquots of these stock solutions were diluted in reservoirs containing extracellular solution. […] The concentration–response curve parameters for the alkaloid inhibition (IC50, nH, and the maximal current inhibition) were obtained from the fitted curve of normalized concentration–response data points to the equation Iagonist = Imax (agonist)nH/((agonist)nH + (EC50)nH). The IC50 curves are best-fit mean ± SE from pooled data. […] The concentration of agonist corresponds to the sub-saturating agonist concentration used to obtain the IC50 for each alkaloid on a given GlyR subtype.

chimeric α1α2 GlyR = molecular target: T3, chimeric α1α2 GlyR (Rattus norvegicus, UniProt P07727+P22771, F345L/G282A/I268V/L342F/S324A); type: cell-based
T3 construct: Relevance of the ECD for the subunit-specific actions of gelsemine on α1GlyRs; expressed in transfected cells; host or cells: HEK293 (ATCC CRL-1573)
T3 sequence (P07727+P22771 with tags, fused parts or gaps P07727:I268V/P07727:G282A/P07727:S324A/P07727:L342F/P07727:F345L): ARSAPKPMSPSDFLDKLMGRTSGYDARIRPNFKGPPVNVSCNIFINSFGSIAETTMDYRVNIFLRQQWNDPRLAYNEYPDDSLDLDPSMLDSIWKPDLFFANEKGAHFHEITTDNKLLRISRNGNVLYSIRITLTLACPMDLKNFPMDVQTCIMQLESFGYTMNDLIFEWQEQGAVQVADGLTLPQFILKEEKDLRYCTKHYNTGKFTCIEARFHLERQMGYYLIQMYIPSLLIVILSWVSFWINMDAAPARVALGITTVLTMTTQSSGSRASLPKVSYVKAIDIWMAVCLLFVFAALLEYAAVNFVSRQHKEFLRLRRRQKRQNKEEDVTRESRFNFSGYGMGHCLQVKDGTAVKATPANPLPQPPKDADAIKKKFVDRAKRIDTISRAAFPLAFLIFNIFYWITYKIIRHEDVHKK
Description: as §1, §2

| Compound | modulation of currents (in words) (α3 GlyR) | lethal plasma concentrations [1] | IC50 [2] | effect on glycine-evoked currents (in words) (chimeric α2α1 GlyR; 50 μM gelsemine, 65 μM glycine) | effect on glycine-evoked currents (in words) (chimeric α1α2 GlyR; 10 μM gelsemine, 35 μM glycine) | EC50 (chimeric α2α1 GlyR; read-out: EC50 of agonist) | EC50 (chimeric α1α2 GlyR; read-out: EC50 of agonist) |
| --- | --- | --- | --- | --- | --- | --- | --- |
| C=C[C@]12CN(C)[C@@H]3[C@H]4CO[C@H](C[C@H]41)[C@]1(C(=O)Nc4ccccc41)[C@@H]32 [gelsemine] | concentration-dependent inhibition | 13 to 30 µg/mL | 55 to 75 µM | inhibitory effect | potentiated |  |  |
| NCC(=O)O [glycine, reference compound] |  |  |  |  |  | 104 ± 9 µM | 55 ± 3 µM |
